Legend:
HCT116 cells = tested on: HCT116 cells; design: method as in PMID 24997575; conditions: MTT assay; cited from earlier work
PC3 cell line = tested on: PC3 cell line; design: method as in PMID 23802716; conditions: cited from earlier work
[1] = tested on: MCF7 cells (hormone-dependent); design: method as in PMID 23802716; conditions: cited from earlier work
[2] = tested on: A549 human lung adenocarcinoma epithelial cell line; test: MTT cytotoxicity test, A549; format: cell-based; conditions: 72 h incubation
[3] = tested on: LNCaP human prostate cancer cell line; test: MTT cytotoxicity test, LNCaP; format: cell-based; conditions: for CC50: Homo sapiens, LNCaP, read-out: CC50, LNCaP; for CC50 / CC50, LNCaP / selectivity on LNCaP cells over PC3 cells: MTT test; for selectivity index S for LNCaP/PC3 cells: ratio of CC50 values of the cell line pair
[4] = tested on: p53 expression level in p53wt A549 cell line; test: p53 activation, β-galactosidase reporter construction; conditions: high concentrations (>100 μM), 24 h
Protocol: The β-galactosidase reporter construction equipped with the p53 promotor frame [46] was used to assess the p53 expression level in p53wt A549 cell line. The compounds were tested in the concentration range of 0.5–120 μM with triple dilution steps. The incubation time was 24 h. To take into account the toxic effect of the molecules, the output signal was normalized considering the number of the cells estimated by MTT test with the same incubation tome (24 h). The output was statistically significant if the background signal was exceeded two or more times.

[5] = MTT cytotoxicity test, Hek293T; format: cell-based; conditions: human, 72 h incubation
[6] = tested on: PC3 human prostate cancer cell line; test: MTT cytotoxicity test, PC3; format: cell-based; conditions: for CC50: Homo sapiens
HEK293 cells = tested on: HEK293 cells; design: method as in PMID 21058726; conditions: 24 h cytotoxicity, MTT assay; cited from earlier work
[7] = tested on: HCT116^−/− human colon cancer cells (p53 negative); test: MTT cytotoxicity test, HCT116 p53-/-; conditions: HCT-116, read-out: CC50, HCT^−/−
From the text: (§1) The used models included human prostate cancer cell lines LNCaP and PC3, breast cancer cell line (MCF-7), human colon cancer cells (HCT116^+/+, p53 positive, p53^+/+ and HCT116^−/−, p53 negative, p53^−/−), human lung adenocarcinoma epithelial cell line (A549), SV40-transformed normal human lung fibroblast cells (VA13), as well as human embryonic kidney 293 cells (Hek293) stably expressing SV40 large T antigen (Hek293T). The cytotoxicity of the evaluated molecules was properly assessed using a MTT assay based on the modified approach reported by Ferrari and colleagues.
(§2) To further elucidate the dominant mode of action, we used HCT116^+/+ and HCT116^−/− cells by analogy with the paper published by Shangary and colleagues. This isogenic cell line is commonly applied to investigate the p53/MDM2-dependent mode of action.
(§3) MTT test. The MTT assay was carried out according to [35] with few modifications; 3000 Cells (for HEK293T, A549 and MCF7cell lines) or 4000 cells (for VA13 cell line) were seeded in each well of a 96-well plate. […] Assays were performed in triplicates. […] The MTT solution was then discarded and 140 µL of DMSO was added. The plates were swayed on a shaker (60 rpm) to solubilize the formazan. […] The analysis of cytotoxicity and the estimation of IC50 values were carried out with the built-in functions in the GraphPad Prism program (GraphPad Software, Inc., San Diego, CA) P53 activation.

[8] = MTT cytotoxicity test, VA13; format: cell-based; conditions: human, VA13 SV40-transformed normal lung fibroblast cells, 72 h incubation
Protocol: (§4) MTT test. […] Assays were performed in triplicates.

[9] = tested on: MCF7 breast cancer cell line; test: MTT cytotoxicity test, MCF7; format: cell-based; conditions: Homo sapiens, 72 h incubation
Protocol: as §4

[10] = tested on: HCT116^+/+ human colon cancer cells (p53 positive); test: MTT cytotoxicity test, HCT116 p53+/+; conditions: for CC50: Homo sapiens, HCT-116, read-out: CC50, HCT^+/+; for selectivity S against HCT116^+/+ over HCT116^−/−: ratio of CC50 values of the cell line pair
From the text: as §1, §2, §3

[11] = tested on: HCT116^+/+ human colon carcinoma cells; design: method as in PMID 28339198; conditions: cited from earlier work
[12] = tested on: PC3 human prostate adenocarcinoma cells (p53-null); design: method as in PMID 28339198; conditions: mitogenesis inhibition, dye assay, WST-8; cited from earlier work
[13] = tested on: HCT116^−/− human colon carcinoma cells; design: method as in PMID 28339198; conditions: cited from earlier work
[14] = tested on: LNCaP cells (androgen-dependent); design: method as in PMID 28339198; conditions: mitogenesis inhibition, dye assay, WST-8; cited from earlier work

Row | melting point | SMILES | CC50 [2] | CC50 [3] | CC50 at 72 h [5] | CC50 [6] | CC50 [7] | CC50 at 72 h [8] | CC50 [9] | CC50 [10] | other results
1 |  | CC(C)(C)CC1N[C@@H](C(=O)Nc2ccc(C(N)=O)cc2)[C@H](c2ccc(F)c(Cl)c2)C12C(=O)Nc1cc(Cl)ccc12 (stereo partly drawn) [Compound V] |  |  |  |  |  |  |  |  | IC50 (HCT116 cells): 0.09 µM
2 |  | CCOC(=O)C1CSC2(C(=O)N(C)c3ccc(Br)cc32)N1C(=O)C1CCCCC1 (stereo not drawn) [VI] |  |  |  |  |  |  |  |  | IC50 (PC3 cell line): 0.41 µM; IC50 [1]: 0.04 µM
3 |  | CN1CC2(NC(=O)N(c3ccc(F)c(Cl)c3)C2=O)C2(C1)C(=O)Nc1ccc(Cl)cc12 (stereo not drawn) [Compound 9r, 5″-Chloro-1-(3-chloro-4-fluorophenyl)-1′-methyldispiro[imidazolidine-4,3′-pyrrolidine-4′,3″-indoline]-2,2″,5-trione] | 35.3 ± 17.7 µM | 19.6 ± 1.8 µM | 15.1 ± 1.2 µM | > 50 µM |  |  |  |  | CC50, LNCaP [3]: good activity; selectivity on LNCaP cells over PC3 cells [3]: selective; p53 activation [4]: 2.1 fold
4 |  | O=C1C2CCC3(C(=O)Nc4ccccc43)C2C(=O)N1Cc1ccc(Cl)cc1 (stereo not drawn) [Compound IV] |  |  |  |  |  |  |  |  | CC50 (HEK293 cells): 0.44 µM
5 | 240 to 241 °C | CCOc1ccc(N2C(=O)C3(CN(C)CC34C(=O)Nc3ccccc34)NC2=S)cc1 (stereo not drawn) [Compound 4g, 1′-Methyl-1-(4-ethoxyphenyl)-2-thioxodispiro[imidazolidine-4,3′-pyrrolidine-4′,3″-indoline]-2″,5-dione] | 38.2 ± 11.5 µM | > 100 µM | 30.2 ± 8.2 µM | > 100 µM | > 100 µM | 73.6 ± 23.4 µM | 75.2 ± 29.3 µM | > 100 µM | 
6 | 216 to 217 °C | CN1CC2(NC(=S)N(CCCN3CCOCC3)C2=O)C2(C1)C(=O)Nc1ccccc12 (stereo not drawn) [Compound 4u, 1′-Methyl-1-(3-morpholinopropyl)-2-thioxodispiro[imidazolidine-4,3′-pyrrolidine-4′,3″-indoline]-2″,5-dione] | > 100 µM | 3.4 ± 0.6 µM | > 100 µM | 53.6 ± 17.3 µM | > 100 µM | > 100 µM | > 100 µM | 20.8 ± 4.8 µM | selectivity on LNCaP cells over PC3 cells [3]: selective; selectivity index S for LNCaP/PC3 cells [3]: 15.7; selectivity S against HCT116^+/+ over HCT116^−/− [10]: > 1.8
7 | 268 to 271 °C | CCOc1ccc(N2C(=O)C3(CN(C)CC34C(=O)Nc3ccc(Cl)cc34)NC2=S)cc1 (stereo not drawn) [Compound 4h, 5″-Chloro-1′-methyl-1-(4-ethoxyphenyl)-2-thioxodispiro[imidazolidine-4,3′-pyrrolidine-4′,3″-indoline]-2″,5-dione] | 6.2 ± 2.1 µM | > 100 µM | 6.7 ± 0.9 µM | > 100 µM | > 100 µM | 6.3 ± 1.1 µM | 8.5 ± 1.2 µM | > 100 µM | CC50, LNCaP [3]: no activity at all; CC50, PC3 [6]: no activity at all
8 |  | CCN1[C@@H](C(=O)CC23CCC(C(=O)O)(CC2)CC3)[C@H](c2ccc(F)c(Cl)c2)C2(C(=O)Nc3cc(Cl)ccc32)C12CCCCC2 (stereo partly drawn) [II] |  |  |  |  |  |  |  |  | selectivity towards p53-positive cells ([11]; HCT116^+/+ vs HCT116^−/−): 80 fold; IC50 [11]: 0.1 µM; IC50 [12]: 22 µM; IC50 [13]: 8 µM; IC50 [14]: 0.018 ± 0.013 µM
9 | 273 to 274 °C | CN1CC2(NC(=S)N(c3ccccc3)C2=O)C2(C1)C(=O)Nc1ccccc12 (stereo not drawn) [Compound 4w, 1′-Methyl-1-phenyl-2-thioxodispiro[imidazolidine-4,3′-pyrrolidine-4′,3″-indoline]-2″,5-dione] | > 100 µM | 9.8 ± 1.8 µM | 75.1 ± 8.6 µM | 52.2 ± 11.6 µM | > 100 µM | 94.1 ± 19.7 µM | 57.9 ± 17.1 µM | 54.7 ± 9.5 µM | selectivity index S for LNCaP/PC3 cells [3]: 5.3; selectivity S against HCT116^+/+ over HCT116^−/− [10]: > 4.8
10 | 252 to 254 °C | CN1CC2(NC(=S)N(c3ccc(F)c(Cl)c3)C2=O)C2(C1)C(=O)Nc1ccccc12 (stereo not drawn) [Compound 4q, 1′-Methyl-1-(3-chloro-4-fluorophenyl)-2-thioxodispiro[imidazolidine-4,3′-pyrrolidine-4′,3″-indoline]-2″,5-dione] | > 100 µM | > 100 µM | 69.1 ± 21 µM | > 100 µM | > 100 µM | 57.9 ± 18.3 µM | 62.2 ± 27.7 µM | > 100 µM | 
11 | 159 to 160 °C | Cc1ccc(N2C(=O)C3(CN(C)CC34C(=O)Nc3ccc(Cl)cc34)NC2=S)cc1 (stereo not drawn) [Compound 4j, 5″-Chloro-1′-methyl-1-(p-tolyl)-2-thioxodispiro[imidazolidine-4,3′-pyrrolidine-4′,3″-indoline]-2″,5-dione] | 62 ± 8.3 µM | > 100 µM | 17.4 ± 2 µM | > 100 µM | > 100 µM | 27.2 ± 5.3 µM | 13.7 ± 2.1 µM | > 100 µM | 
12 | 141 to 142 °C | C=CCN1C(=O)C2(CN(C)CC23C(=O)Nc2ccc(Cl)cc23)NC1=S (stereo not drawn) [Compound 4d, 5″-Chloro-1′-methyl-1-allyl-2-thioxodispiro[imidazolidine-4,3′-pyrrolidine-4′,3″-indoline]-2″,5-dione] | 32.1 ± 6.7 µM | 20 ± 3.6 µM | 11.5 ± 3 µM | 50 ± 9.1 µM | 40.1 ± 5.23 µM | 30.8 ± 4.5 µM | 68.4 ± 8.8 µM | 57.7 ± 18.4 µM | selectivity on LNCaP cells over PC3 cells [3]: moderate selectivity
13 | 152 to 153 °C | CN1CC2(NC(=S)N(Cc3ccccc3)C2=O)C2(C1)C(=O)Nc1ccc(Cl)cc12 (stereo not drawn) [Compound 4b, 5″-Chloro-1′-methyl-1-benzyl-2-thioxodispiro[imidazolidine-4,3′-pyrrolidine-4′,3″-indoline]-2″,5-dione] | 9.1 ± 2.2 µM | 10.3 ± 1.1 µM | 9.5 ± 1.7 µM | 49 ± 12.7 µM | 30 ± 15.2 µM | 21.4 ± 1.9 µM | 24.3 ± 2.3 µM | 60.7 ± 13.8 µM | selectivity on LNCaP cells over PC3 cells [3]: moderate selectivity
14 | 272 to 273 °C (dec.) | CN1CC2(NC(=S)N(C3CC3)C2=O)C2(C1)C(=O)Nc1ccccc12 (stereo not drawn) [Compound 4s, 1′-Methyl-1-cyclopropyl-2-thioxodispiro[imidazolidine-4,3′-pyrrolidine-4′,3″-indoline]-2″,5-dione] | > 100 µM | > 100 µM | > 100 µM | > 100 µM | > 100 µM | > 100 µM | > 100 µM | > 100 µM | 
15 | 177 to 180 °C | CN1CC2(NC(=S)N(c3ccc(F)c(Cl)c3)C2=O)C2(C1)C(=O)Nc1ccc(Cl)cc12 (stereo not drawn) [Compound 4r, 5″-Chloro-1′-methyl-1-(3-chloro-4-fluorophenyl)-2-thioxodispiro[imidazolidine-4,3′-pyrrolidine-4′,3″-indoline]-2″,5-dione] | 14.1 ± 1.8 µM | > 100 µM | 11.1 ± 1.3 µM | > 100 µM | > 100 µM | 13.9 ± 1.5 µM | 14.1 ± 1.2 µM | > 100 µM | CC50, LNCaP [3]: absolutely inactive; CC50, PC3 [6]: absolutely inactive

— paper PMC8703884, “Synthesis and Biological Evaluation of S-, O- and Se-Containing Dispirooxindoles” (Molecules, 2021)
